# Data as given in article PMC8398255, “Synthesis of 3,5-Bis(trifluoromethyl)phenyl-Substituted Pyrazole Derivatives as Potent Growth Inhibitors of Drug-Resistant Bacteria” (Molecules, 2021).
# What was measured:
# Gram-positive bacteria = test: MIC across the tested strains; type: cell-based; conditions: for MIC: across the tested strains
# Description: (§1) Compounds were dissolved in dimethyl sulfoxide (DMSO) to achieve a starting concentration of 32 µg/mL as described by us previously. Compounds were further diluted two-fold across the 96-well honeycomb plate columns in cation adjusted Mueller Hinton broth (CAMHB), and bacterial culture was added. Plates were incubated for 18–20 h at 35 ℃ before determining the minimum concentrations at which wells had no visible turbidity to the naked eye. The MIC values were determined from at least a duplicate result obtained from three independent experiments using fresh bacterial cultures on different days.
# [1] = system: E. faecalis ATCC 29212 (Ef12); test: MIC, microdilution (CLSI); type: cell-based; conditions: Enterococcus faecalis, ATCC29212; Ef12, antibiotic susceptible E. faecalis ATCC 29212; n = 3; read-out: MIC
# Description: as §1
# [2] = system: S. aureus ATCC 33591 (Sa91); test: MIC, microdilution (CLSI); type: cell-based; conditions: Staphylococcus aureus, ATCC33591; Sa91, methicillin-resistant S. aureus ATCC 33591; n = 3; read-out: MIC
# Description: as §1
# [3] = system: S. aureus ATCC 33592 (Sa92); test: MIC, microdilution (CLSI); type: cell-based; conditions: Staphylococcus aureus, ATCC33592; Sa92, methicillin-resistant S. aureus ATCC 33592; n = 3; read-out: MIC
# Description: as §1
# [4] = system: Bacillus subtilis ATCC 6623 (Bs); test: MIC, microdilution (CLSI); type: cell-based; conditions: ATCC6623; Bs, Bacillus subtilis ATCC 6623; n = 3; read-out: MIC
# Description: as §1
# [5] = system: S. aureus ATCC 700699 (Sa99); test: MIC, microdilution (CLSI); type: cell-based; conditions: Staphylococcus aureus, ATCC700699; Sa99, methicillin-resistant S. aureus ATCC 700699; n = 3; read-out: MIC
# Description: as §1
# [6] = system: S. aureus BAA-2312 (Sa12); test: MIC, microdilution (CLSI); type: cell-based; conditions: Staphylococcus aureus, BAA2312; Sa12, methicillin-resistant S. aureus BAA-2312; n = 3; read-out: MIC
# Description: as §1
# [7] = system: E. faecalis ATCC 51299 (Ef99); test: MIC, microdilution (CLSI); type: cell-based; conditions: Enterococcus faecalis, ATCC 51299 / VRE; Ef99, vancomycin-resistant (VRE) E. faecalis ATCC 51299; n = 3; read-out: MIC
# Description: as §1
# [8] = system: S. epidermidis ATCC 700296 (Se); test: MIC, microdilution (CLSI); type: cell-based; conditions: Staphylococcus epidermidis, ATCC700296; Se, S. epidermidis ATCC 700296; n = 3; read-out: MIC
# Description: as §1
# [9] = system: E. faecium ATCC 700221 (Ef21); test: MIC, microdilution (CLSI); type: cell-based; conditions: Enterococcus faecium, ATCC 700221 / VRE; Ef21, vancomycin-resistant (VRE) E. faecium ATCC 700221; n = 3; read-out: MIC
# Description: as §1
# [10] = system: S. aureus ATCC 25923 (Sa23); test: MIC, microdilution (CLSI); type: cell-based; conditions: Staphylococcus aureus, ATCC25923; Sa23, antibiotic susceptible S. aureus ATCC 25923; n = 3; read-out: MIC
# Description: as §1
# S. aureus strains = test: MIC against S. aureus strains; type: cell-based, Staphylococcus aureus; conditions: for times more effective than vancomycin and daptomycin: against S. aureus strains
# Description: as §1
"MIC (S. aureus strains; Staphylococcus aureus, S. aureus strains, including MRSA) [µg/mL]",SMILES,MIC (Gram-positive bacteria) [µg/mL],MIC [1] [µg/mL],MIC [2] [µg/mL],MIC [3] [µg/mL],MIC [4] [µg/mL],MIC [5] [µg/mL],MIC [6] [µg/mL],MIC [7] [µg/mL],MIC [8] [µg/mL],MIC [9] [µg/mL],MIC [10] [µg/mL],times more effective than vancomycin and daptomycin (S. aureus strains),antibacterial activity (Gram-positive bacteria; tested bacteria)
–,"O=C(O)c1ccc(-n2cc(CNc3cc(Cl)c(F)cc3F)c(-c3cc(C(F)(F)F)cc(C(F)(F)F)c3)n2)cc1 [Compound 26, 4-[3-[3,5-Bis(trifluoromethyl)phenyl]-4-[(5-chloro-2,4-difluoro-anilino)methyl]pyraz-ol-1-yl] benzoic acid]",≥ 0.25,1,2,1,0.25,1,0.25,2,4,0.25,2,up to 4 times,–
–,"O=C(O)c1ccc(-n2cc(CNc3ccc(F)c(C(F)(F)F)c3)c(-c3cc(C(F)(F)F)cc(C(F)(F)F)c3)n2)cc1 [Compound 22, 4-[3-[3,5-Bis(trifluoromethyl)phenyl]-4-[[4-fluoro-3-(trifluoromethyl)anilino]methyl]pyrazol-1-yl] benzoic acid]",–,2,1,1,2,1,1,2,2,1,1,up to 4 times,–
–,"O=C(O)c1ccc(-n2cc(CNc3cc(Cl)cc(Cl)c3)c(-c3cc(C(F)(F)F)cc(C(F)(F)F)c3)n2)cc1 [Compound 20, 4-[3-[3,5-Bis(trifluoromethyl)phenyl]-4-[(3,5-dichloroanilino)methyl]pyrazol-1-yl] benzoic acid]",≥ 0.5,1,0.5,1,1,1,1,1,2,1,1,up to 4 times,–
–,"O=C(O)c1ccc(-n2cc(CNc3ccc(Cl)c(Cl)c3)c(-c3cc(C(F)(F)F)cc(C(F)(F)F)c3)n2)cc1 [Compound 19, 4-[3-[3,5-Bis(trifluoromethyl)phenyl]-4-[(3,4-dichloroanilino)methyl]pyrazol-1-yl] benzoic acid]",≥ 0.5,1,0.5,1,1,2,0.5,1,1,1,1,up to 4 times,–
–,"Cc1cc(NCc2cn(-c3ccc(C(=O)O)cc3)nc2-c2cc(C(F)(F)F)cc(C(F)(F)F)c2)ccc1F [Compound 14, 4-[3-[3,5-Bis(trifluoromethyl)phenyl]-4-[(4-fluoro-3-methyl-anilino)methyl]pyrazol-1-yl] benzoic acid]",≥ 1,2,2,1,1,2,1,2,4,1,2,–,–
–,"CSc1ccc(NCc2cn(-c3ccc(C(=O)O)cc3)nc2-c2cc(C(F)(F)F)cc(C(F)(F)F)c2)cc1 [Compound 6, 4-[3-[3,5-Bis(trifluoromethyl)phenyl]-4-[(4-methylsulfanylanilino)methyl]pyrazol-1-yl] benzoic acid]",1 to 4,4,2,2,1,4,2,2,4,2,2,–,–
–,"Cc1ccc(NCc2cn(-c3ccc(C(=O)O)cc3)nc2-c2cc(C(F)(F)F)cc(C(F)(F)F)c2)cc1Cl [Compound 15, 4-[3-[3,5-Bis(trifluoromethyl)phenyl]-4-[(3-chloro-4-methyl-anilino)methyl]pyrazol-1-yl] benzoic acid]",≥ 1,2,1,2,1,2,1,2,2,1,2,–,–
1 to 2,"CC(C)c1ccc(NCc2cn(-c3ccc(C(=O)O)cc3)nc2-c2cc(C(F)(F)F)cc(C(F)(F)F)c2)cc1 [Compound 2, 4-[3-[3,5-Bis(trifluoromethyl)phenyl]-4-[(4-isopropylanilino)methyl]pyrazol-1-yl] benzoic acid]",–,2,1,1,1,2,1,1,2,1,2,–,–
–,"O=C(O)c1ccc(-n2cc(CNc3cccc(C(=O)O)c3)c(-c3cc(C(F)(F)F)cc(C(F)(F)F)c3)n2)cc1 [Compound 12, 3-[[3-[3,5-Bis(trifluoromethyl)phenyl]-1-(4-carboxyphenyl)pyrazol-4-yl]methylamino] benzoic acid]",–,> 32,> 32,> 32,> 32,> 32,> 32,> 32,> 32,> 32,> 32,–,eliminated the activity
–,"O=C(O)c1ccc(-n2cc(CNc3ccc(F)c(F)c3)c(-c3cc(C(F)(F)F)cc(C(F)(F)F)c3)n2)cc1 [Compound 17, 4-[3-[3,5-Bis(trifluoromethyl)phenyl]-4-[(3,4-difluoroanilino)methyl]pyrazol-1-yl] benzoic acid]",1 to 4,4,2,2,1,2,2,4,4,2,2,–,–
